As usually defined, the EC50 is the midpoint of the concentration-response curve.

The structures appear in SMILES notation.

The target of this assay is T1, human GPR40 (Homo sapiens, UniProt O14842).
T1 construct: expressed in transfected cells
T1 sequence (O14842 whole entry): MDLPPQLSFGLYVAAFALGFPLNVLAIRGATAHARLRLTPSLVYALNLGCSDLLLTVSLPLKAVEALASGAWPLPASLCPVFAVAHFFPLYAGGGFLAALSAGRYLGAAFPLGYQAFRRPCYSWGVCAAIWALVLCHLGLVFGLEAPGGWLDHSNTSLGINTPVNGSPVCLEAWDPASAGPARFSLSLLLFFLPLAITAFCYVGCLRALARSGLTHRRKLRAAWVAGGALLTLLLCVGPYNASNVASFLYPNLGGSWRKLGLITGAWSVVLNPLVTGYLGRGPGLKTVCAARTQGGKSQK
Put plainly: Inositol Phosphate Turnover (IP1) Assay. In kind it is cell-based. The settings on record: HEK cells stably expressing human GPR40; CisBio IP-One kit; 60 minutes at 37 degrees; read-out: Human IP1 EC50. A digest of the protocol:
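HEK cells stably expressing GPR40, plated 16 h, then exposed to compound in stimulation buffer for 60 min at 37 °C. IP1 accumulation read by HTRF IP-One detection after 60 min at RT.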
Regarding `CCc1[nH]c(C(=O)O)cc1-c1ccc(OC(F)(F)F)c(C(C)N2CCC3(CCc4ccc([C@H](C5CC5)[C@H](C)C(=O)O)cc4O3)CC2)c1` (single isomer, unassigned) [Example 120, 4-(3-((S or R)-1-(7-((1R,2S)-2-carboxy-1-cyclopropylpropyl)spiro[chro-man-2,4′-piperidin]-1′-yl)ethyl)-4-(trifluoro-methoxy)phenyl)-5-ethyl-1H-pyrrole-2-carboxylic acid], the EC50 is 501 nM.

Take `C[C@H](C(=O)O)[C@H](c1ccc2c(c1)OC1(CC2)CCN(c2cc(C(F)(F)F)ccc2C(F)(F)F)CC1)C1CC1` [Example 59, (2S,3R)-3-(1′-(2,5-bis(trifluoromethyl)phenyl)spiro[chroman-2,4′-piperidin]-7-yl)-3-cyclopropyl-2-methylpropanoic Acid]: the EC50 turned out to be 3.3 nM.

With `C[C@H](C(=O)O)[C@H](c1ccc2c(c1)OC1(CC2)CC(N[C@H](C)c2cc(C(F)(F)F)ccc2C(F)(F)F)C1)C1CC1` (stereo partly drawn) [Example 93, (2S,3R)-3-(3′-(((R)-1-(2,5-bis(trifluoro-methyl)phenyl)ethyl)a-mino)spiro[chroman-2,1′-cyclo-butan]-7-yl)-3-cyclopropyl-2-methylpropanic acid], the EC50 was 5.71 nM.

On to `C[C@H](C(=O)O)[C@H](c1ccc2c(c1F)OC1(CC2)CCN(Cc2cc(Cl)ccc2OC(F)F)CC1)C1CC1` [Example 20, (2S,3R)-3-(1′-(5-chloro-2-(difluoromethoxy)benzyl)-8-fluorospiro[chroman-2,4′-piperidin]-7-yl)-3-cyclopropyl-2-methylpropanoic Acid], for which the EC50 stood at 13.5 nM.

With `C[C@H](C(=O)O)[C@H](c1ccc2c(c1)OC1(CC2)CCN(S(=O)(=O)c2cc(C(F)(F)F)ccc2Cl)CC1)C1CC1` [Example 25, (2S,3R)-3-(1′-((2-chloro-5-(trifluoromethyl)phenyl)sulfonyl)spiro[chroman-2,4′-piperidin]-7-yl)-3-cyclopropyl-2-methylpropanoic Acid], the EC50 is 18.3 nM.

As to `C[C@H](C(=O)O)[C@H](c1ccc2c(c1)OC1(CC2)CCN(c2ccc3c(c2)c(C(F)(F)F)nn3C)CC1)C1CC1` [Example 38, (2S,3R)-3-cyclopropyl-2-methyl-3-(1′-(1-methyl-3-(trifluoromethyl)-1H-indazol-5-yl)spiro[chroman-2,4′-piperidin]-7-yl)propanoic acid], the EC50 amounted to 506 nM.

Consider `CC(c1cc(F)cc(F)c1Cl)N1CCC2(CCc3ccc([C@H](C4CC4)[C@H](C)C(=O)O)cc3O2)CC1` (single isomer, unassigned) [Example 18], for which the 50% effective concentration (EC50) was 46.1 nM.

As to `C[C@H](C(=O)O)[C@H](c1ccc2c(c1)OC1(CC2)CCN(Cc2cc(C(F)(F)F)ccc2C(F)(F)F)CC1)C1CC1` [Example 129, Sodium (2S,3R)-3-(1′-(2,5-bis(trifluoromethyl)benzyl)spiro[chromane-2,4′-piperidin]-7-yl)-3-cyclopropyl-2-methylpropanoate], the EC50 amounted to 3.8 nM.

For `CC[C@@H](c1cc(C(F)(F)F)ccc1C(F)(F)F)N1CCC2(CCc3ccc([C@H](C4CC4)[C@H](C)C(=O)O)cc3O2)CC1` [Example 7, sodium (2S,3R)-3-(1′-((S)-1-(2,5-bis(trifluoro-methyl)phenyl)propyl)-spiro[chroman-2,4′-piperidin]-7-yl)-3-cyclo-propyl-2-methyl-propanoic acid], the EC50 stood at 2.14 nM.

Turning to `C[C@H](C(=O)O)[C@H](c1ccc2c(c1)OC1(CC2)CCN(S(=O)(=O)c2cc(C(F)(F)F)ccc2C(F)(F)F)CC1)C1CC1` [Example 23, (2S,3R)-3-(1′-((2,5-bis(trifluoromethyl)phenyl)sulfonyl)spiro[chroman-2,4′-piperidin]-7-yl)-3-cyclopropyl-2-methylpropanoic Acid], the EC50 was found to be 14.3 nM.

Turning to `C[C@H](NC1CC2(CCc3ccc([C@H](C4CC4)[C@H](C)C(=O)O)cc3O2)C1)c1cc(C(F)(F)F)ccc1C(F)(F)F` (single isomer, unassigned) [Example 92], the EC50 turned out to be 24.6 nM.

The values are drawn from patent US10968232B2 (Merck Sharp & Dohme Corp., priority 2016, dated 2021).
